Assay results reported in BindingDB's records for doi:10.1021/jm00003a001 (Glaxo Research Institute, 1995).

Biological target: DNA topoisomerase 1 (Bos taurus)
Assay: Inhibition of topoisomerase I activity was determined in vitro by using the cleavable complex assay(calf thymus)

| SMILES | IC50 |
| --- | --- |
| CC[C@@]1(O)C(=O)OCc2c1cc1n(c2=O)Cc2c-1nc1cc3c(cc1c2CN1CCN(C)CC1)OCCO3 [8-ethyl-8-hydroxy-15-(4-methylhexahydro-1-pyrazinylmethyl)-(8S)-2,3,8,9,12,14-hexahydro-11H-[1,4]dioxino[2,3-g]pyrano[3',4':6,7]indolizino[1,2-b]quinoline-9,12-dione with trifluoroaceticacid] | 416 nM |
| CC[C@@]1(O)C(=O)OCc2c1cc1n(c2=O)Cc2c-1nc1cc3c(cc1c2CCl)OCCO3 [15-chloromethyl-8-ethyl-8-hydroxy-(8S)-2,3,8,9,12,14-hexahydro-11H-[1,4]dioxino[2,3-g]pyrano[3',4':6,7]indolizino[1,2-b]quinoline-9,12-dione] | 11 nM |
| CC[C@@]1(O)C(=O)OCc2c1cc1n(c2=O)Cc2c-1nc1cc3c(cc1c2CCl)OCO3 [14-chloromethyl-7-ethyl-7-hydroxy-(7S)-7,8,11,13-tetrahydro-10H-[1,3]dioxolo[4,5-g]pyrano[3',4':6,7]indolizino[1,2-b]quinoline-8,11-dione] | 15 nM |
